This is an account of results in patent US12565522B2, “Micropeptide HMMW and application thereof” (NANJING ANJI BIOTECHNOLOGY CO., LTD., priority 2019, dated 2026).

No end group written: not given here.

Holding throughout (test): Matrigel transwell invasion test
What all share (format): cell-based, human
Holding throughout (details): 24 h

Experiment [1] has as its system SCC4 cells of head and neck cancer. Here is the method:
(§1) Dilute 10 mg/mL Matrigel with culture medium at 1:3, spread it on membranes of transwell cells and dry it in the air at room temperature. Use trypsin to digest and collect SCC4 cells of head and neck cancer, SW579 cells of thyroid cancer, A549 cells of lung cancer, TE13 cells of esophageal squamous cell carcinoma, MGC803 cells of stomach cancer, MDA-MB-231 cells of breast cancer, UOK262 cells of kidney cancer, and A431 cells of skin cancer of human, which were cultured to the logarithmic phase, wash with PBS twice and re-suspend with a blank culture medium. Adjust cell concentration to 1×10^5 cells/mL. Inoculate the cells to transwell cells, 100 μL per well, and meanwhile add micropeptides HMMW I to IX at different doses to every cell. Add 0.6 mL of complete medium containing 10% FBS to the transwell cells to stimulate cell invasion, and culture in 5% CO2 at 37 DEG C. for 24 h. Discard the medium in the wells, fix with 90% alcohol at room temperature for 30 min, stain with 0.1% crystal violet at room temperature for 10 min, rinse with clear water, gently wipe off the non-invaded cells in the upper layer with a cotton swab, observe under a microscope and select four fields of view to take pictures and count. Calculate the invasion inhibition rate (IIR) of the cells according to the following formula:
(§2) [formula] where Ntest is the number of invaded cells in the test groups (the groups at a dose of 1, 4 or 16 μM in the table), Ncontrol is the number of invaded cells in the blank control groups (the groups at a dose of 0 μM in the table). The test was repeated independently three times. Mean±SD was calculated based on the test results. Statistical t test was done. Value P was used to express statistical difference. The statistical significance of the results is a method for estimating how true the results are (the totality can be represented), *P<0.05 means significant difference, and **P<0.01 means very significant difference.

Experiment [2] has as its system SW579 cells of thyroid cancer. Here is the method:
as §1, §2

Experiment [3] concerns A431 cells of skin cancer. Here is the method:
as §1, §2

Experiment [4] concerns UOK262 cells of kidney cancer. Here is the method: as §1, §2
In experiment [5] the test system is TE13 cells of esophageal squamous cell carcinoma. Here is the method: as §1, §2
The test system of experiment [6] is MDA-MB-231 cells of breast cancer. On the procedure: as §1, §2
The test system of experiment [7] is MGC803 cells of stomach cancer. Here is the method:
as §1, §2

Experiment [8] relates to A549 cells of lung cancer. On the procedure:
as §1, §2

“MGSTYNKRHSPRRSSVEAKMQSTSCSVRKSSTVTAWPAVVLLLSWGQRRGG-OH [HMMW-III]”: the invasion inhibition rate in experiment [1] (dose 1 μM) came to 22.75%; in experiment [1] (dose 4 μM), 48.24%; in experiment [1] (dose 16 μM), 75.84%; in experiment [2] (dose 1 μM), 18.63%; in experiment [2] (dose 4 μM) it was 42.76%; in experiment [2] (dose 16 μM) it was 63.89%. Further, the invasion inhibition rate in experiment [3] (dose 1 μM) is recorded as 33.70%; in experiment [3] (dose 4 μM), 53.21%; in experiment [3] (dose 16 μM) it was 67.33%; in experiment [4] (dose 1 μM) it was 34.37%; in experiment [4] (dose 4 μM) it was 55.15%; in experiment [4] (dose 16 μM) it was 67.23%. In addition, the invasion inhibition rate in experiment [5] (dose 1 μM) amounted to 21.23%; in experiment [5] (dose 4 μM) it was 41.81%; in experiment [5] (dose 16 μM), 63.31%; in experiment [6] (dose 1 μM), 28.91%; in experiment [6] (dose 4 μM), 49.82%; in experiment [6] (dose 16 μM) it was 68.36%. The invasion inhibition rate turned out to be 25.11% in experiment [7] (dose 1 μM); 53.38% in experiment [7] (dose 4 μM); 67.61% in experiment [7] (dose 16 μM); 32.13% in experiment [8] (dose 1 μM); 52.30% in experiment [8] (dose 4 μM); 66.09% in experiment [8] (dose 16 μM).
With “MERAGVPGFSPRRSSVEAKMQSTSCSVRKSSTVTAWPAVVLLLSWGQRDEE-OH [HMMW-VI]”, the invasion inhibition rate came to 22.83% in experiment [1] (dose 1 μM); 47.82% in experiment [1] (dose 4 μM); 74.16% in experiment [1] (dose 16 μM); 23.29% in experiment [2] (dose 1 μM); 46.63% in experiment [2] (dose 4 μM); 67.58% in experiment [2] (dose 16 μM). Besides, the invasion inhibition rate in experiment [3] (dose 1 μM) came out at 36.83%; in experiment [3] (dose 4 μM), 57.35%; in experiment [3] (dose 16 μM), 71.16%; in experiment [4] (dose 1 μM), 38.15%; in experiment [4] (dose 4 μM), 58.28%; in experiment [4] (dose 16 μM) it was 67.51%. Besides, the invasion inhibition rate amounted to 22.25% in experiment [5] (dose 1 μM); 42.39% in experiment [5] (dose 4 μM); 67.47% in experiment [5] (dose 16 μM); 24.83% in experiment [6] (dose 1 μM); 46.57% in experiment [6] (dose 4 μM); 71.43% in experiment [6] (dose 16 μM). Moreover, the invasion inhibition rate in experiment [7] (dose 1 μM) is given as 23.42%; in experiment [7] (dose 4 μM), 54.19%; in experiment [7] (dose 16 μM), 63.35%; in experiment [8] (dose 1 μM) it was 34.15%; in experiment [8] (dose 4 μM), 56.32%; in experiment [8] (dose 16 μM), 65.35%.
Consider “MERAGVPGFSPRRSSVEAKMQSTSCSVRKSSTVTAWPAVVLLLSWGKDDEE-OH [HMMW-IV]”, for which the invasion inhibition rate is on record as 22.79% in experiment [1] (dose 1 μM); 47.34% in experiment [1] (dose 4 μM); 74.40% in experiment [1] (dose 16 μM); 23.10% in experiment [2] (dose 1 μM); 46.71% in experiment [2] (dose 4 μM); 67.72% in experiment [2] (dose 16 μM). Further, the invasion inhibition rate in experiment [3] (dose 1 μM) was determined as 36.25%; in experiment [3] (dose 4 μM), 57.19%; in experiment [3] (dose 16 μM) it was 71.36%; in experiment [4] (dose 1 μM) it was 38.40%; in experiment [4] (dose 4 μM) it was 58.36%; in experiment [4] (dose 16 μM), 67.62%. Also, the invasion inhibition rate in experiment [5] (dose 1 μM) is 22.40%; in experiment [5] (dose 4 μM), 42.42%; in experiment [5] (dose 16 μM), 67.51%; in experiment [6] (dose 1 μM), 24.91%; in experiment [6] (dose 4 μM) it was 46.73%; in experiment [6] (dose 16 μM), 71.64%. Further, the invasion inhibition rate came out at 23.50% in experiment [7] (dose 1 μM); 54.21% in experiment [7] (dose 4 μM); 63.49% in experiment [7] (dose 16 μM); 34.22% in experiment [8] (dose 1 μM); 56.11% in experiment [8] (dose 4 μM); 65.24% in experiment [8] (dose 16 μM).
Consider “MERAGVPGFSPRRSSVEAKMQSTSCSVRKSSTVTAWPAVVLLLSWGQRRGE-OH [HMMW-VIII]”, for which the invasion inhibition rate in experiment [1] (dose 1 μM) stood at 23.71%; in experiment [1] (dose 4 μM) it was 49.14%; in experiment [1] (dose 16 μM), 76.64%; in experiment [2] (dose 1 μM), 19.61%; in experiment [2] (dose 4 μM) it was 43.56%; in experiment [2] (dose 16 μM), 64.79%. The invasion inhibition rate in experiment [3] (dose 1 μM) came to 34.50%; in experiment [3] (dose 4 μM) it was 55.11%; in experiment [3] (dose 16 μM), 69.43%; in experiment [4] (dose 1 μM), 35.27%; in experiment [4] (dose 4 μM), 54.14%; in experiment [4] (dose 16 μM), 68.21%. Further, the invasion inhibition rate in experiment [5] (dose 1 μM) stood at 24.21%; in experiment [5] (dose 4 μM), 42.31%; in experiment [5] (dose 16 μM), 61.51%; in experiment [6] (dose 1 μM), 27.90%; in experiment [6] (dose 4 μM) it was 45.81%; in experiment [6] (dose 16 μM) it was 64.26%. Also, the invasion inhibition rate in experiment [7] (dose 1 μM) is 26.01%; in experiment [7] (dose 4 μM) it was 57.18%; in experiment [7] (dose 16 μM), 70.60%; in experiment [8] (dose 1 μM) it was 34.03%; in experiment [8] (dose 4 μM), 55.20%; in experiment [8] (dose 16 μM) it was 68.03%.
